The source of these data is ChEMBL document CHEMBL2331177, “Pleurospiroketals A-E, perhydrobenzannulated 5,5-spiroketal sesquiterpenes from the edible mushroom Pleurotus cornucopiae” (J Nat Prod, 2013).

Structures are written as SMILES. pIC50: −log10 of the molar value.

In data set [1] the test system is HeLa. The data set is described as follows: Cytotoxicity against human HeLa cells after 72 hrs by MTT assay. It is filed as functional, cell-based.
In data set [2] the test system is RAW264.7. As to the kind of experiment: Inhibition of LPS-induced nitric oxide production in mouse RAW264.7 cells treated 1 hr before LPS challenge measured after 24 hrs by Griess reaction method. It is filed as functional, cell-based.
The subject of data set [3] is RAW264.7. The data set is described as follows: Cytotoxicity against mouse RAW264.7 cells at 100 uM. It is filed as cell-based. The following applies: raw264.7, 100 µM.

As to `CC(=O)OCC1=C2CC[C@](C)(O)[C@H](O)[C@H]2O[C@@]12OC(C)(C)CC2=O` [PLEUROSPIROKETAL C], the values for the pIC50 in data set [1] and in data set [2] were 4.73 and 4.68, respectively. Besides, in data set [3], the Activity result is recorded as “Non-toxic”.

For `C[C@]12CCC(=O)C=C1CC[C@@H]1[C@@H]2[C@@H](O)C[C@@]2(C)[C@H]1CC[C@]2(O)C(=O)CO` [HYDROCORTISONE], the pIC50 in data set [2] is 4.27.

On to `C=C1[C@H]2CC[C@](C)(O)[C@H](O)[C@H]2O[C@@]12OC(C)(C)CC2=O` [PLEUROSPIROKETAL A], for which the values for the pIC50 in data set [1] and in data set [2] were 4.69 and 5.17, respectively. The Activity entry in data set [3] was “Non-toxic”.

For `C=C1[C@H]2CC[C@](C)(O)[C@H](O)[C@H]2O[C@]12OC(C)(C)CC2=O` [PLEUROSPIROKETAL B], the results for the pIC50 in data set [1] and in data set [2] were 4.48 and 4.90, respectively. The Activity result in data set [3] is “Non-toxic”.

The pIC50 is the negative decadic logarithm of the IC50, by convention in mol/L.
